# From patent US12077503B2, “Substituted cyclic amides and their use as herbicides” (FMC CORPORATION, priority 2015, dated 2024)
# Experiments:
# Format in all cases: in vivo
# [1] = tested on: ryegrass, Italian (Italian ryegrass, Lolium multiflorum); experiment: Test A postemergence
# Text: (§1) Seeds of plant species selected from barnyardgrass (Echinochloa crus-galli), Kochia (Kochia scoparia), ragweed (common ragweed, Ambrosia elatior), ryegrass, Italian (Italian ryegrass, Lolium multiflorum), crabgrass, large (Digitaria sanguinalis), giant foxtail (Setaria faberii), green foxtail (Setaria viridis), morningglory (Ipomoea spp.), pigweed (Amaranthus retroflexus), velvetleaf (Abutilon theophrasti), wheat (Triticum aestivum), and corn (Zea mays) were planted into a blend of loam soil and sand and treated preemergence with a directed soil spray using test chemicals formulated in anon-phytotoxic solvent mixture which included a surfactant.
# (§2) At the same time, plants selected from these crop and weed species and also blackgrass (Alopecurus myosuroides), and Galium (catchweed bedstraw, Galium aparine) were planted in pots containing the same blend of loam soil and sand and treated with postemergence applications of test chemicals formulated in the same manner. Plants ranged in height from 2 to 10 cm and were in the one- to two-leaf stage for the postemergence treatment. Treated plants and untreated controls were maintained in a greenhouse for approximately 10 d, after which time all treated plants were compared to untreated controls and visually evaluated for injury. Plant response ratings, summarized in Table A, are based on a 0 to 100 scale where 0 is no effect and 100 is complete control. A dash (-) response means no test result.
# [2] = tested on: Galium (catchweed bedstraw, Galium aparine); experiment: Test A postemergence
# Text: as §1, §2
# [3] = tested on: ragweed (common ragweed, Ambrosia elatior); experiment: Test A postemergence
# Text: as §1, §2
# [4] = tested on: Kochia (Kochia scoparia); experiment: Test A postemergence
# Text: as §1, §2
# [5] = tested on: wheat (Triticum aestivum); experiment: Test A postemergence
# Text: as §1, §2
# [6] = tested on: giant foxtail (Setaria faberii); experiment: Test A postemergence
# Text: as §1, §2
# [7] = tested on: pigweed (Amaranthus retroflexus); experiment: Test A postemergence
# Text: as §1, §2
# [8] = tested on: corn (Zea mays); experiment: Test A postemergence
# Text: as §1, §2
# [9] = tested on: blackgrass (Alopecurus myosuroides); experiment: Test A postemergence
# Text: as §1, §2
# [10] = tested on: barnyardgrass (Echinochloa crus-galli); experiment: Test A postemergence
# Text: as §1, §2
# [11] = tested on: sedge, umbrella (small-flower umbrella sedge, Cyperus difformis); experiment: Test B flooded paddy test; settings: Flood, 250 g ai/ha; for Plant response rating, Sedge, Umbrella (0 to 100 scale where 0 is no effect and 100 is complete control): visually evaluated after 13 to 15 d
# Method: (§3) Plant species in the flooded paddy test selected from rice (Oryra sativa), sedge, umbrella (small-flower umbrella sedge, Cyperus difformis), ducksalad (Heteranthera limosa), and barnyardgrass (Echinochloa crus-galli) were grown to the 2-leaf stage for testing. At time of treatment, test pots were flooded to 3 cm above the soil surface, treated by application of test compounds directly to the paddy water, and then maintained at that water depth for the duration of the test. Treated plants and controls were maintained in a greenhouse for 13 to 15 d, after which time all species were compared to controls and visually evaluated. Plant response ratings, summarized in Table B, are based on a scale of 0 to 100 where 0 is no effect and 100 is complete control. A dash (-) response means no test result.
# [12] = tested on: rice (Oryra sativa); experiment: Test B flooded paddy test; settings: Flood, 250 g ai/ha
# Method: as §3
# [13] = tested on: ducksalad (Heteranthera limosa); experiment: Test B flooded paddy test; settings: Flood, 250 g ai/ha
# Method: as §3
# [14] = tested on: barnyardgrass (Echinochloa crus-galli); experiment: Test B flooded paddy test; settings: Flood, 250 g ai/ha
# Method: as §3
# [15] = tested on: ryegrass, Italian (Italian ryegrass, Lolium multiflorum); experiment: Test A preemergence; settings: for Plant response rating, Ryegrass, Italian: 125 g ai/ha, 0 to 100 scale (0 no effect, 100 complete control)
# Text: as §1, §2
# [16] = tested on: ragweed (common ragweed, Ambrosia elatior); experiment: Test A preemergence; settings: for Plant response rating, Ragweed: 125 g ai/ha, 0 to 100 scale (0 no effect, 100 complete control); for Ragweed plant response rating: 0 to 100 scale where 0 is no effect and 100 is complete control
# Text: as §1, §2
# [17] = tested on: Kochia (Kochia scoparia); experiment: Test A preemergence; settings: for Plant response rating, Kochia: 125 g ai/ha, 0 to 100 scale (0 no effect, 100 complete control); for Kochia plant response rating: 0 to 100 scale where 0 is no effect and 100 is complete control
# Text: as §1, §2
# [18] = tested on: giant foxtail (Setaria faberii); experiment: Test A preemergence; settings: for Plant response rating, Foxtail, Giant: 125 g ai/ha, 0 to 100 scale (0 no effect, 100 complete control); for Foxtail, Giant plant response rating: 0 to 100 scale where 0 is no effect and 100 is complete control
# Text: as §1, §2
# [19] = tested on: pigweed (Amaranthus retroflexus); experiment: Test A preemergence; settings: for Plant response rating, Pigweed: 125 g ai/ha, 0 to 100 scale (0 no effect, 100 complete control); for Pigweed plant response rating: 0 to 100 scale where 0 is no effect and 100 is complete control
# Text: as §1, §2
# [20] = tested on: barnyardgrass (Echinochloa crus-galli); experiment: Test A preemergence; settings: for Plant response rating, Barnyardgrass: 125 g ai/ha, 0 to 100 scale (0 no effect, 100 complete control); for Barnyardgrass plant response rating: 0 to 100 scale where 0 is no effect and 100 is complete control
# Text: as §1, §2
# [21] = 500 g ai/ha, postemergence, 0 to 100 scale, 0 no effect, 100 complete control
# [22] = Postemergence, 125 g ai/ha, visual injury, 0 to 100 scale (0 no effect, 100 complete control), approx. 10 d
# [23] = 0 to 100 scale where 0 is no effect and 100 is complete control, 13 to 15 d
# [24] = Preemergence, 500 g ai/ha, 0 is no effect, 100 is complete control
# [25] = 125 g ai/ha, Postemergence, visual rating about 10 d after treatment
# [26] = Postemergence, 500 g ai/ha, visual injury, 0 to 100 scale (0 no effect, 100 complete control), approx. 10 d
# [27] = 0 to 100 scale where 0 is no effect and 100 is complete control
# [28] = Postemergence, 31 g ai/ha, 0 is no effect, 100 is complete control
# [29] = visually evaluated after 13 to 15 d
compound,measurement,setting,value
Cc1ccc(C2CNC(=O)C2C(=O)Nc2ccc(F)cc2F)cc1F (racemic) [Compound 370],"Plant response rating, Ryegrass, Italian",[1]; [21],20
same,"Plant response rating, Ryegrass, Italian",[1]; [22],0
same,"Plant response rating, Galium",[2]; [21],60
same,"Plant response rating, Galium",[2]; [22],20
same,"Plant response rating, Ragweed",[3]; [21],50
same,"Plant response rating, Ragweed",[3]; [22],0
same,"Plant response rating, Kochia",[4]; [21],0
same,"Plant response rating, Kochia",[4]; [22],0
same,"Plant response rating, Wheat",[5]; [21],20
same,"Plant response rating, Wheat",[5]; [22],0
same,"Plant response rating, Foxtail, Giant",[6]; [21],70
same,"Plant response rating, Foxtail, Giant",[6]; [22],40
same,"Plant response rating, Pigweed",[7]; [21],0
same,"Plant response rating, Pigweed",[7]; [22],0
same,"Plant response rating, Corn",[8]; [21],20
same,"Plant response rating, Corn",[8]; [22],0
same,"Plant response rating, Blackgrass",[9]; [21],40
same,"Plant response rating, Blackgrass",[9]; [22],0
same,"Plant response rating, Barnyardgrass",[10]; [21],90
same,"Plant response rating, Barnyardgrass",[10]; [22],80
same,"Plant response rating, Sedge, Umbrella",[11]; [23],30
same,"Plant response rating, Rice",[12]; [23],0
same,"Plant response rating, Ducksalad",[13]; [23],100
same,"Plant response rating, Barnyardgrass",[14]; [23],60
same,"Plant response rating, Ryegrass, Italian",[15]; preemergence,0
same,"Ryegrass, Italian plant response rating (0 to 100 scale)",[15]; [24],0
same,"Plant response rating, Ragweed",[16]; preemergence,0
same,Ragweed plant response rating (0 to 100 scale),[16]; [24],20
same,"Plant response rating, Kochia",[17]; preemergence,0
same,Kochia plant response rating (0 to 100 scale),[17]; [24],30
same,"Plant response rating, Foxtail, Giant",[18]; preemergence,90
same,"Foxtail, Giant plant response rating (0 to 100 scale)",[18]; [24],90
same,"Plant response rating, Pigweed",[19]; preemergence,0
same,Pigweed plant response rating (0 to 100 scale),[19]; [24],0
same,"Plant response rating, Barnyardgrass",[20]; preemergence,90
same,Barnyardgrass plant response rating (0 to 100 scale),[20]; [24],90
Cc1cc([C@H]2CN(C)C(=O)[C@@H]2C(=O)Nc2ccccc2[S+](C)[O-])ccc1F (stereo partly shown) [Compound 1314],"Ryegrass, Italian plant response rating (0 to 100 scale)",[1]; [25],0
same,"Plant response rating, Ryegrass, Italian",[1]; [26],0
same,Galium plant response rating (0 to 100 scale),[2]; [25],30
same,"Plant response rating, Galium",[2]; [26],50
same,Ragweed plant response rating (0 to 100 scale),[3]; [25],0
same,"Plant response rating, Ragweed",[3]; [26],50
same,Kochia plant response rating (0 to 100 scale),[4]; [25],50
same,"Plant response rating, Kochia",[4]; [26],60
same,Wheat plant response rating (0 to 100 scale),[5]; [25],20
same,"Plant response rating, Wheat",[5]; [26],60
same,"Foxtail, Giant plant response rating (0 to 100 scale)",[6]; [25],90
same,"Plant response rating, Foxtail, Giant",[6]; [26],90
same,Pigweed plant response rating (0 to 100 scale),[7]; [25],0
same,"Plant response rating, Pigweed",[7]; [26],30
same,Corn plant response rating (0 to 100 scale),[8]; [25],30
same,"Plant response rating, Corn",[8]; [26],70
same,Blackgrass plant response rating (0 to 100 scale),[9]; [25],0
same,"Plant response rating, Blackgrass",[9]; [26],60
same,"Plant response rating, Sedge, Umbrella (0 to 100 scale where 0 is no effect and 100 is complete control)",[11],0
same,Rice plant response rating,[12]; [27],0
same,Ducksalad plant response rating,[13]; [27],100
same,Barnyardgrass plant response rating,[14]; [27],65
same,"Plant response rating, Ryegrass, Italian",[15]; Preemergence,20
same,Ragweed plant response rating,"[16]; 500 g ai/ha, preemergence",100
same,"Plant response rating, Ragweed",[16]; Preemergence,80
same,Kochia plant response rating,"[17]; 500 g ai/ha, preemergence",80
same,"Plant response rating, Kochia",[17]; Preemergence,80
same,"Foxtail, Giant plant response rating","[18]; 500 g ai/ha, preemergence",100
same,"Plant response rating, Foxtail, Giant",[18]; Preemergence,90
same,Pigweed plant response rating,"[19]; 500 g ai/ha, preemergence",70
same,"Plant response rating, Pigweed",[19]; Preemergence,0
same,Barnyardgrass plant response rating,"[20]; 500 g ai/ha, preemergence",100
same,"Plant response rating, Barnyardgrass",[20]; Preemergence,100
CN1C[C@H](c2ccc3c(c2)OC(F)(F)O3)[C@@H](C(=O)Nc2cccc([N+](=O)[O-])c2)C1=O [Compound 1353],"Ryegrass, Italian plant response rating (0 to 100 scale)",[1]; [25],0
same,"Ryegrass, Italian plant response rating (0 to 100 scale)",[1]; [28],0
same,Ragweed plant response rating (0 to 100 scale),[3]; [25],0
same,Ragweed plant response rating (0 to 100 scale),[3]; [28],0
same,Kochia plant response rating (0 to 100 scale),[4]; [25],20
same,Kochia plant response rating (0 to 100 scale),[4]; [28],0
same,Wheat plant response rating (0 to 100 scale),[5]; [25],0
same,Wheat plant response rating (0 to 100 scale),[5]; [28],0
same,"Foxtail, Giant plant response rating (0 to 100 scale)",[6]; [25],70
same,"Foxtail, Giant plant response rating (0 to 100 scale)",[6]; [28],30
same,Pigweed plant response rating (0 to 100 scale),[7]; [25],20
same,Pigweed plant response rating (0 to 100 scale),[7]; [28],0
same,Corn plant response rating (0 to 100 scale),[8]; [25],0
same,Corn plant response rating (0 to 100 scale),[8]; [28],0
same,Blackgrass plant response rating (0 to 100 scale),[9]; [25],20
same,Blackgrass plant response rating (0 to 100 scale),[9]; [28],0
same,"Barnyardgrass plant response rating (0 to 100 scale, 0 no effect, 100 complete control)",[10]; [25],90
same,Barnyardgrass plant response rating (0 to 100 scale),[10]; [28],40
same,"Plant response rating, Sedge, Umbrella (0 to 100 scale where 0 is no effect and 100 is complete control)",[11],0
same,"Plant response rating, Rice (0 to 100 scale where 0 is no effect and 100 is complete control)",[12]; [29],0
same,"Plant response rating, Ducksalad (0 to 100 scale where 0 is no effect and 100 is complete control)",[13]; [29],40
same,"Plant response rating, Barnyardgrass (0 to 100 scale where 0 is no effect and 100 is complete control)",[14]; [29],60
same,"Ryegrass, Italian plant response rating","[15]; 31 g ai/ha, Preemergence, 0 to 100 scale where 0 is no effect and 100 is complete control",10
same,"Plant response rating, Ryegrass, Italian",[15]; Preemergence,20
same,Ragweed plant response rating,"[16]; 31 g ai/ha, Preemergence",40
same,"Plant response rating, Ragweed",[16]; Preemergence,0
same,Kochia plant response rating,"[17]; 31 g ai/ha, Preemergence",60
same,"Plant response rating, Kochia",[17]; Preemergence,80
same,"Foxtail, Giant plant response rating","[18]; 31 g ai/ha, Preemergence",80
same,"Plant response rating, Foxtail, Giant",[18]; Preemergence,100
same,Pigweed plant response rating,"[19]; 31 g ai/ha, Preemergence",0
same,"Plant response rating, Pigweed",[19]; Preemergence,30
same,Barnyardgrass plant response rating,"[20]; 31 g ai/ha, Preemergence",0
same,"Plant response rating, Barnyardgrass",[20]; Preemergence,70
